PubChem BioAssay AID248 (DTP/NCI, 2004)
Several values for one entry are separate records, joined by “and”; a condition that tells them apart may be missing. Identical values can stand only once. Inconclusive results and toxic doses are left out. Rule as the data show it: active = T/C of 150% or more; inactive = T/C below 125%.

Test system: L1210 leukemia ip in BDF1 mice, survival T/C
Experiment: NCI In Vivo Anticancer Drug Screen. Data for tumor model L1210 Leukemia (intraperitoneal) in B6D2F1 (BDF1) mice
Conditions: endpoint: mean survival time, higher = longer survival
Outline: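 Antitumor effect is assessed in tumor-bearing animals. Survival in the compound arm is compared with a vehicle-dosed control arm and expressed as their quotient.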

[1] = dose: 100.0 mg/kg/injection, schedule: Q04DX002 (ip), vehicle: Klucel (hydroxypropylcellulose) (HPC)
[2] = dose: 200.0 mg/kg/injection, schedule: Q04DX002 (ip), vehicle: Klucel (hydroxypropylcellulose) (HPC)
[3] = dose: 100.0 mg/kg/injection, schedule: Q01DX009 (ip), vehicle: saline with Tween-80
[4] = dose: 100.0 mg/kg/injection, schedule: Q04DX003 (ip), vehicle: saline with Tween-80
[5] = dose: 200.0 mg/kg/injection, schedule: Q01DX009 (ip), vehicle: saline with Tween-80
[6] = dose: 200.0 mg/kg/injection, schedule: Q04DX003 (ip), vehicle: saline with Tween-80
[7] = dose: 400.0 mg/kg/injection, schedule: Q04DX003 (ip), vehicle: saline with Tween-80
[8] = dose: 100.0 mg/kg/injection, schedule: Q04DX002 (ip), vehicle: saline
[9] = dose: 200.0 mg/kg/injection, schedule: Q04DX002 (ip), vehicle: saline
[10] = dose: 400.0 mg/kg/injection, schedule: Q04DX002 (ip), vehicle: saline
[11] = dose: 100.0 mg/kg/injection, schedule: Q04DX003 (ip), vehicle: Klucel (hydroxypropylcellulose) (HPC)
[12] = dose: 100.0 mg/kg/injection, schedule: Q04DX003 (ip), vehicle: saline
[13] = dose: 200.0 mg/kg/injection, schedule: Q01DX009 (ip), vehicle: Klucel (hydroxypropylcellulose) (HPC)
[14] = dose: 200.0 mg/kg/injection, schedule: Q04DX003 (ip), vehicle: Klucel (hydroxypropylcellulose) (HPC)
[15] = dose: 200.0 mg/kg/injection, schedule: Q04DX003 (ip), vehicle: saline
[16] = dose: 50.0 mg/kg/injection, schedule: Q04DX002 (ip), vehicle: Klucel (hydroxypropylcellulose) (HPC)
[17] = dose: 100.0 mg/kg/injection, schedule: Q01DX009 (ip), vehicle: saline
[18] = dose: 200.0 mg/kg/injection, schedule: Q01DX009 (ip), vehicle: saline
[19] = dose: 400.0 mg/kg/injection, schedule: Q01DX009 (ip), vehicle: saline
[20] = dose: 400.0 mg/kg/injection, schedule: Q04DX003 (ip), vehicle: saline
[21] = dose: 100.0 mg/kg/injection, schedule: Q01DX001 (ip), vehicle: saline
[22] = dose: 200.0 mg/kg/injection, schedule: Q01DX001 (ip), vehicle: saline
[23] = dose: 400.0 mg/kg/injection, schedule: Q01DX001 (ip), vehicle: saline

Measured: T/C

CN(N=O)C(=O)NCCc1ccccc1
inactive: dose: 6.25 mg/kg/injection, schedule: Q01DX Z (ip), vehicle: carboxymethylcellulose (CMC) 101 % of control | dose: 12.5 mg/kg/injection, schedule: Q01DX Z (ip), vehicle: carboxymethylcellulose (CMC) 112 % of control | dose: 25.0 mg/kg/injection, schedule: Q01DX Z (ip), vehicle: carboxymethylcellulose (CMC) 93 % of control | dose: 50.0 mg/kg/injection, schedule: Q01DX Z (ip), vehicle: carboxymethylcellulose (CMC) 98 % of control | dose: 100.0 mg/kg/injection, schedule: Q01DX Z (ip), vehicle: carboxymethylcellulose (CMC) 109 % of control | dose: 200.0 mg/kg/injection, schedule: Q01DX Z (ip), vehicle: carboxymethylcellulose (CMC) 98 % of control | dose: 400.0 mg/kg/injection, schedule: Q01DX Z (ip), vehicle: carboxymethylcellulose (CMC) 108 % of control

CC(=O)Nc1cncc2ccccc12
inactive: dose: 100.0 mg/kg/injection, schedule: Q01DX009 (ip), vehicle: other 104 % of control | dose: 100.0 mg/kg/injection, schedule: Q04DX002 (ip), vehicle: other 97 % of control | dose: 200.0 mg/kg/injection, schedule: Q01DX009 (ip), vehicle: other 101 % of control | dose: 200.0 mg/kg/injection, schedule: Q04DX002 (ip), vehicle: other 105 % of control | dose: 400.0 mg/kg/injection, schedule: Q01DX009 (ip), vehicle: other 106 % of control | dose: 400.0 mg/kg/injection, schedule: Q04DX002 (ip), vehicle: other 105 % of control

CC(C)(C)CC(C)(C)c1ccc(OCCOCCSC(=N)N)cc1
inactive: dose: 50.0 mg/kg/injection, schedule: Q01DX001 (ip), vehicle: carboxymethylcellulose (CMC) 93 % of control | dose: 100.0 mg/kg/injection, schedule: Q01DX001 (ip), vehicle: carboxymethylcellulose (CMC) 98 % of control

Fc1c(F)c(F)c(P(c2ccccc2)c2ccccc2)c(F)c1F
inactive: [1] 95 % of control | [2] 95 % of control | dose: 400.0 mg/kg/injection, schedule: Q04DX002 (ip), vehicle: Klucel (hydroxypropylcellulose) (HPC) 111 % of control

Cc1nn2c(=O)[nH]cnc2c1Cl
inactive: [3] 108 % of control | [4] 91 % of control | [5] 108 % of control | [6] 89 % of control | dose: 400.0 mg/kg/injection, schedule: Q01DX009 (ip), vehicle: saline with Tween-80 105 % of control | [7] 92 % of control

Cn1c2ccccc2c2nnc(NCCCCO)nc21
inactive: [8] 106 % of control | [9] 97 % of control | [10] 101 % of control

CN(C)N=Nc1cn[nH]c1C(N)=O
inactive: dose: 25.0 mg/kg/injection, schedule: Q01DX009 (ip), vehicle: Klucel (hydroxypropylcellulose) (HPC) 117 % of control | dose: 50.0 mg/kg/injection, schedule: Q01DX009 (ip), vehicle: Klucel (hydroxypropylcellulose) (HPC) 112 % of control and 117 % of control and 118 % of control | [11] 96 % of control and 121 % of control | [12] 111 % of control | dose: 178.0 mg/kg/injection, schedule: Q01DX009 (ip), vehicle: saline 87 % of control | [13] 105 % of control and 113 % of control | [14] 98 % of control | [15] 119 % of control | dose: 267.0 mg/kg/injection, schedule: Q01DX009 (ip), vehicle: saline 91 % of control | dose: 400.0 mg/kg/injection, schedule: Q01DX009 (ip), vehicle: Klucel (hydroxypropylcellulose) (HPC) 103 % of control

CCCCCCCCCCOC(=S)S
inactive: dose: 50.0 mg/kg/injection, schedule: Q04DX002 (sc), vehicle: olive oil, sesame oil, peanut oil 100 % of control | dose: 100.0 mg/kg/injection, schedule: Q04DX002 (sc), vehicle: olive oil, sesame oil, peanut oil 116 % of control | dose: 200.0 mg/kg/injection, schedule: Q04DX002 (sc), vehicle: olive oil, sesame oil, peanut oil 106 % of control

NC(=S)N/N=C/c1c(Cl)n(C(=O)c2ccccc2)c2ccccc12
inactive: [16] 98 % of control | [1] 87 % of control | [2] 87 % of control

CCOC(=O)C1SCSCC1=O (stereo unspecified)
inactive: [4] 102 % of control | [6] 98 % of control | [7] 98 % of control

CN1CCN(c2ccc([N+](=O)[O-])c3no[n+]([O-])c23)CC1
inactive: dose: 0.2 mg/kg/injection, schedule: Q03HX024 (ip), vehicle: saline with Tween-80 104 % of control | dose: 0.39 mg/kg/injection, schedule: Q03HX024 (ip), vehicle: saline with Tween-80 100 % of control | dose: 0.78 mg/kg/injection, schedule: Q03HX024 (ip), vehicle: saline with Tween-80 111 % of control | dose: 1.56 mg/kg/injection, schedule: Q03HX024 (ip), vehicle: saline with Tween-80 105 % of control | dose: 3.13 mg/kg/injection, schedule: Q03HX024 (ip), vehicle: saline with Tween-80 109 % of control | dose: 7.5 mg/kg/injection, schedule: Q01DX009 (ip), vehicle: saline 108 % of control and 115 % of control | dose: 10.0 mg/kg/injection, schedule: Q01DX009 (ip), vehicle: saline 118 % of control | dose: 15.0 mg/kg/injection, schedule: Q01DX009 (ip), vehicle: saline 115 % of control and 124 % of control | dose: 25.0 mg/kg/injection, schedule: Q01DX009 (ip), vehicle: saline 117 % of control | dose: 25.0 mg/kg/injection, schedule: Q04DX002 (ip), vehicle: Klucel (hydroxypropylcellulose) (HPC) 104 % of control | [16] 104 % of control | [1] 113 % of control

Cc1ccc(NCc2cccc3ccccc23)c(C)c1
inactive: [17] 96 % of control | [12] 104 % of control | [18] 97 % of control | [15] 102 % of control | [19] 94 % of control | [20] 96 % of control

COc1ccc(C(=O)/C=C/c2cccc([N+](=O)[O-])c2)cc1
inactive: dose: 50.0 mg/kg/injection, schedule: Q01DX009 (ip), vehicle: saline with Tween-80 97 % of control | [3] 97 % of control | [5] 97 % of control

O=C1C2C3CC4C2C(=O)C2C1C3C42 (stereo unspecified)
inactive: dose: 75.0 mg/kg/injection, schedule: Q01DX001 (ip), vehicle: other 101 % of control | [17] 97 % of control | [12] 94 % of control | dose: 150.0 mg/kg/injection, schedule: Q01DX001 (ip), vehicle: other 101 % of control | [18] 94 % of control | [15] 104 % of control | dose: 300.0 mg/kg/injection, schedule: Q01DX001 (ip), vehicle: other 93 % of control | [19] 104 % of control | [20] 91 % of control

NC1C(O)CCCC1O (stereo unspecified)
inactive: [21] 107 % of control | [22] 102 % of control | [23] 102 % of control

CCO/C=C1\SC(=S)N(c2cccc(C)c2)C1=O
inactive: dose: 100.0 mg/kg/injection, schedule: Q01DX009 (ip), vehicle: Klucel (hydroxypropylcellulose) (HPC) 112 % of control | [11] 101 % of control | [13] 87 % of control | [14] 113 % of control | dose: 400.0 mg/kg/injection, schedule: Q04DX003 (ip), vehicle: Klucel (hydroxypropylcellulose) (HPC) 95 % of control

COc1ccccc1NC(=O)Oc1ccc(Br)cc1Br
inactive: [21] 95 % of control | [17] 102 % of control and 106 % of control | [8] 105 % of control and 109 % of control | [12] 93 % of control | [22] 101 % of control | [18] 103 % of control and 110 % of control | [9] 105 % of control and 109 % of control | [15] 95 % of control | [23] 123 % of control | [19] 103 % of control and 109 % of control | [10] 107 % of control and 88 % of control | [20] 101 % of control
